System: 293T cells
Assay: Western blot of protein expressed from wild-type and human codon optimized foamyvirus gag, pol and env constructs
Format: cell-based
Details: optimized vs wild-type sequence
Text: To assessing the amount of protein that was present in virus producing cells upon transfection of the human codon usage-optimized cDNAs in comparison with the wild-type sequences, 293T packaging cells were transfected with equal amounts of the corresponding plasmids in sequential dilutions. DNA (pUC19) from a cloning vector was utilized to keep the absolute amount of DNA transfected into 293T cells the same. For FV gag and pol, the only difference between the two plasmids was the optimization of the FV gene for human codon usage. For the PFV env gene, the human optimized ORF in a vector with slice donor and acceptor sites was compared to the non-optimzed sequence expressed without splice sites in the same vector. Additionally, the expression of optimized simian FV (SFV) env contained on pUC19, like the above comparisons, was compared to a non-optimized SFV env contained on a pCL (Promega).

## SFV-1 env: Homo sapiens optimized Env cDNA from Simian Foamy Virus (SFV-1) (SEQ. ID. No. 4)
  protein levels increased through optimization of the FV genes for human codon usage: increased

— patent US20120141440A1, “FOAMYVIRUS VECTORS AND METHODS OF USE” (priority 2009, published 2012)
